Assay [1] has as its system Tyrosine-protein kinase ABL1 (Homo sapiens), P00519 [M351T]. Put plainly: Inhibition of recombinant human Abl M351T mutant (27 to end residues) at 1 uM using EAIYAAPFAKKK as substrate after 40 mins in presence of [gamma-33P]ATP by scintillation counting method.
The target in assay [2] is CDK3/Cyclin E (Homo sapiens) (UniProt P24864+Q00526). Put plainly: Inhibition of recombinant full-length human CDK3/Cyclin E at 1 uM using histone H1 as substrate after 40 mins in presence of [gamma-33P]ATP by scintillation counting method. In kind it is protein-complex assay.
Assay [3] addresses Tyrosine-protein kinase ABL2 (Mus musculus) (UniProt Q4JIM5). Put plainly: Inhibition of A562 insertion recombinant mouse ARG (27 to end residues) at 1 uM using EAIYAAPFAKKK as substrate after 40 mins in presence of [gamma-33P]ATP by scintillation counting method.
Assay [4] has as its target Serine-protein kinase ATM (Homo sapiens) (UniProt Q13315). Put plainly: Inhibition of recombinant full-length human ATM at 1 uM using GST-cMyc-p53 as substrate after 40 mins in presence of [gamma-33P]ATP by scintillation counting method.
Assay [5] has as its target Calcium/calmodulin-dependent protein kinase kinase 2 (Homo sapiens) (UniProt Q96RR4). Put plainly: Inhibition of recombinant full-length human CAMKK2 at 1 uM using […] after 40 mins in presence of [gamma-33P]ATP by scintillation counting method.
Assay [6] has as its target Cyclin-dependent kinase 5/CDK5 activator 1 (Homo sapiens) (UniProt Q00535+Q15078). As to the kind of experiment: Inhibition of recombinant full-length human CDK5/P25 at 1 uM using histone H1 as substrate after 40 mins in presence of [gamma-33P]ATP by scintillation counting method. In kind it is protein-complex assay.
Assay [7] has as its target Dual specificity protein kinase CLK2 (Homo sapiens) (UniProt P49760). Put plainly: Inhibition of recombinant human CLK2 (138 to end residues) at 1 uM using YRRAAVPPSPSLSRHSSPHQS(p)EDEEE as substrate after 40 mins in presence of [gamma-33P]ATP by scintillation counting method.
In assay [8] the target is Serine/threonine-protein kinase DCLK2 (Homo sapiens) (UniProt Q8N568). As to the kind of experiment: Inhibition of recombinant human DCAMKL2 (376 to end residues) at 1 uM using KKLNRTLSFAEPG as substrate after 40 mins in presence of [gamma-33P]ATP by scintillation counting method.
For assay [9], the system named is Epidermal growth factor receptor (Homo sapiens), P00533 [L858R]. Put plainly: Inhibition of recombinant human EGFR L858R mutant (696 to end residues) at 1 uM using poly(Glu,Tyr) 4:1 as substrate after 40 mins in presence of [gamma-33P]ATP by scintillation counting method.
Sequence of Epidermal growth factor receptor (Homo sapiens), P00533 [L858R] (P00533 whole entry L858R, the tested form may be a part): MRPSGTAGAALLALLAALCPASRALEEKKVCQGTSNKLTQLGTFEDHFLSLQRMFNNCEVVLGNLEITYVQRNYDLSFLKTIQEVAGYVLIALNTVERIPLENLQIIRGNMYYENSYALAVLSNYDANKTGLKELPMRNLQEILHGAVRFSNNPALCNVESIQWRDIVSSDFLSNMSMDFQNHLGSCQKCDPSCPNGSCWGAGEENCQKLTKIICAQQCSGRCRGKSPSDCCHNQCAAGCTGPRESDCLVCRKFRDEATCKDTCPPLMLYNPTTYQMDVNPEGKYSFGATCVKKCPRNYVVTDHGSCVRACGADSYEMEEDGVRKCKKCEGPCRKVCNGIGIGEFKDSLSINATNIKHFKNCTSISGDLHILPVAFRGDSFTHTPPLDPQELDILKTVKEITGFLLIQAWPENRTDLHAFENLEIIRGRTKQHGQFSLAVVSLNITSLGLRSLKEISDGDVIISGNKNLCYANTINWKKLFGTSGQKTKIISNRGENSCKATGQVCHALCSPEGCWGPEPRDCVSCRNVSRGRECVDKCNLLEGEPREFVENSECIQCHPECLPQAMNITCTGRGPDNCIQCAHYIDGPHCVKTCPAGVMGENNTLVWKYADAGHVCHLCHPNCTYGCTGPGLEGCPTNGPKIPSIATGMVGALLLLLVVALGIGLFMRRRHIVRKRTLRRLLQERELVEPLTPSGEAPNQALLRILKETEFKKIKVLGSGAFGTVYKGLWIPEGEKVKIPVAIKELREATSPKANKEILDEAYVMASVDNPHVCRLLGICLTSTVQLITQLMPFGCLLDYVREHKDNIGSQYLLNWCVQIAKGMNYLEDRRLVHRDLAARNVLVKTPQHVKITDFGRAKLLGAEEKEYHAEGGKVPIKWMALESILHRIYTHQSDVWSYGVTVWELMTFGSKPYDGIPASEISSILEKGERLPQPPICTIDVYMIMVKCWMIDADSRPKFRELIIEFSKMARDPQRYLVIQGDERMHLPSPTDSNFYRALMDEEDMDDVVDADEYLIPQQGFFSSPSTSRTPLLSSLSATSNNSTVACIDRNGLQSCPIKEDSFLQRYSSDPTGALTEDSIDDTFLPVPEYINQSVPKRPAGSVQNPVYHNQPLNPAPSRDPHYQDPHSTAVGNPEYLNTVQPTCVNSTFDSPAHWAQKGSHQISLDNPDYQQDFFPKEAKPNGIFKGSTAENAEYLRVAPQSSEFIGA
In assay [10] the target is Ephrin type-A receptor 7 (Homo sapiens) (UniProt Q15375). Put plainly: Inhibition of recombinant human EPHA7 (613 to 909 residues) at 1 uM using KTFCGTPEYLAPEVRREPRILSEEEQEMFRDFDYIADWC as substrate after 40 mins in presence of [gamma-33P]ATP by scintillation counting method.
In assay [11] the target is Tyrosine-protein kinase JAK1 (Homo sapiens) (UniProt P23458). As to the kind of experiment: Inhibition of recombinant human JAK1 (866 to end residues) at 1 uM using GEEPLYWSFPAKKK as substrate after 40 mins in presence of [gamma-33P]ATP by scintillation counting method.
Sequence of Tyrosine-protein kinase JAK1 (Homo sapiens) (P23458 whole entry): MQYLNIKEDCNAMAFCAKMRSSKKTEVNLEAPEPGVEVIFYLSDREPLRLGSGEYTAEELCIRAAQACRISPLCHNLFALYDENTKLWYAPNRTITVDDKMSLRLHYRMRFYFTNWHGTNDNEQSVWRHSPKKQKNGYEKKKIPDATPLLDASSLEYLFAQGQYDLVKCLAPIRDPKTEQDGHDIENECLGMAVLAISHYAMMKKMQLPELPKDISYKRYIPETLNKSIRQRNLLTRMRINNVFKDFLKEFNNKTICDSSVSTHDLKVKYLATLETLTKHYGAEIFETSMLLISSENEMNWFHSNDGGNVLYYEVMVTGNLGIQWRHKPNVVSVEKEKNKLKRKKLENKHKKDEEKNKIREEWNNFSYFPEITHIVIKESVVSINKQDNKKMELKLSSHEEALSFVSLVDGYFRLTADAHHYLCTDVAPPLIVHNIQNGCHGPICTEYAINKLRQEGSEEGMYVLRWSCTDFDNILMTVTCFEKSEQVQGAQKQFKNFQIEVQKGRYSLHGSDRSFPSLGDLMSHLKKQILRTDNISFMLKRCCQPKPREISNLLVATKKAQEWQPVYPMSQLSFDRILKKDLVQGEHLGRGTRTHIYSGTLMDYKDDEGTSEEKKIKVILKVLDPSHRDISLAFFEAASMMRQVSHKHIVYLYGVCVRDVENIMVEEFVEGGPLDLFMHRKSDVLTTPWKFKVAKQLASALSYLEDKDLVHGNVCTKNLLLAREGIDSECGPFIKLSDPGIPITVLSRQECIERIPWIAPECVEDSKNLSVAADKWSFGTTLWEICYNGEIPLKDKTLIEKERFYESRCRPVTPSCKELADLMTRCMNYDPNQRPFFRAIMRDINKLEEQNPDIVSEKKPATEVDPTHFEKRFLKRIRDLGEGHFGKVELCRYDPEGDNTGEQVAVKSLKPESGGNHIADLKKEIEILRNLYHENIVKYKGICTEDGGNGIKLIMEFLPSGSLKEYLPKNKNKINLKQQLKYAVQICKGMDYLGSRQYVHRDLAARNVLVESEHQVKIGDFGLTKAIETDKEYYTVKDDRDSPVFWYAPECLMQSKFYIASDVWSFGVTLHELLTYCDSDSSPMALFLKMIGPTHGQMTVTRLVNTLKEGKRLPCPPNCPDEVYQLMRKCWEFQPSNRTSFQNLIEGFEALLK
Assay [12] concerns the target Leucine-rich repeat serine/threonine-protein kinase 2 (Homo sapiens) (UniProt Q5S007). Put plainly: Inhibition of recombinant human LRRK2 (970 to end residues) at 1 uM using RLGRDKYKTLRQIRQ as substrate after 40 mins in presence of [gamma-33P]ATP by scintillation counting method.
Assay [13] has as its target Leukocyte tyrosine kinase receptor (Homo sapiens) (UniProt P29376). As to the kind of experiment: Inhibition of recombinant human LTK (450 to end residues) at 1 uM using GEEPLYWSFPAKKK as substrate after 40 mins in presence of [gamma-33P]ATP by scintillation counting method.
The target in assay [14] is Mitogen-activated protein kinase kinase kinase kinase 3 (Homo sapiens) (UniProt Q8IVH8). Put plainly: Inhibition of recombinant human MAP4K3 (1 to 291 residues) at 1 uM using RRRFRPASPLRGPPK as substrate after 40 mins in presence of [gamma-33P]ATP by scintillation counting method.
Assay [15] addresses Serine/threonine-protein kinase MRCK alpha (Homo sapiens) (UniProt Q5VT25). As to the kind of experiment: Inhibition of recombinant human MRCKalpha (1 to 473 residues) at 1 uM using KKRNRTLTV as substrate after 40 mins in presence of [gamma-33P]ATP by scintillation counting method.
The target of assay [16] is Serine/threonine-protein kinase NLK (Homo sapiens) (UniProt Q9UBE8). Put plainly: Inhibition of recombinant human NLK (121 to end residues) at 1 uM using myelin basic protein as substrate after 40 mins in presence of [gamma-33P]ATP by scintillation counting method.
Sequence of Serine/threonine-protein kinase NLK (Homo sapiens) (Q9UBE8 whole entry): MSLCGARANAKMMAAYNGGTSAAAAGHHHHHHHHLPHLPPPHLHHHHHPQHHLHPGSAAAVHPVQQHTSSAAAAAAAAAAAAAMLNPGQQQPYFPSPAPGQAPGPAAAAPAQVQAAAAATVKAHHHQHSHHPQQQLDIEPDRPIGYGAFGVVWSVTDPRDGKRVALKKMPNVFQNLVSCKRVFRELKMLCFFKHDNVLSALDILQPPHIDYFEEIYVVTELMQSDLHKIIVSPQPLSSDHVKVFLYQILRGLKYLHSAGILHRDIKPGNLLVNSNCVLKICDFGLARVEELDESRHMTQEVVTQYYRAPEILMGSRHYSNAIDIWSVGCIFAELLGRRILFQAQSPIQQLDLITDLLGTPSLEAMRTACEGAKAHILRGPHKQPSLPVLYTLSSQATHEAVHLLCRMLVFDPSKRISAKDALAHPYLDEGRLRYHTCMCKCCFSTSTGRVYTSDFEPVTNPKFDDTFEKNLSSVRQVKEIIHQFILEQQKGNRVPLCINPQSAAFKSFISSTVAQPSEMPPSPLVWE
Assay [17] relates to PI3-kinase p110-alpha/p85-alpha (Homo sapiens), P27986+P42336 [E545K]. As to the kind of experiment: Inhibition of recombinant full-length human p110a E545K mutant/p85a at 1 uM using phosphatidylinositol 4,5-bisphosphate as substrate after 40 mins in presence of [gamma-33P]ATP by scintillation counting method. In kind it is protein-complex assay.
Assay [18] concerns the target Protein kinase C alpha type (Homo sapiens) (UniProt P17252). Put plainly: Inhibition of recombinant full-length human PKCalpha at 1 uM using histone H1 as substrate after 40 mins in presence of [gamma-33P]ATP by scintillation counting method.
Assay [19] concerns the target Receptor-interacting serine/threonine-protein kinase 1 (Homo sapiens) (UniProt Q13546). Put plainly: Inhibition of recombinant human RIPK1 (8 to 322 residues) at 1 uM using myelin basic protein as substrate after 120 mins in presence of [gamma-33P]ATP by scintillation counting method.
The target in assay [20] is STE20-like serine/threonine-protein kinase (Homo sapiens) (UniProt Q9H2G2). As to the kind of experiment: Inhibition of recombinant human SLK (1 to 373 residues) at 1 uM using RLGRDKYKTLRQIRQ as substrate after 40 mins in presence of [gamma-33P]ATP by scintillation counting method.
In assay [21] the target is TGF-beta receptor type-1 (Homo sapiens) (UniProt P36897). Put plainly: Inhibition of recombinant activated human TGFBR1 (200 to end residues) at 1 uM using casein as substrate after 40 mins in presence of [gamma-33P]ATP by scintillation counting method.
For assay [22], the target named is Tau-tubulin kinase 2 (Homo sapiens) (UniProt Q6IQ55). As to the kind of experiment: Inhibition of recombinant human TTBK2 (1 to 331 residues) at 1 uM using casein as substrate after 40 mins in presence of [gamma-33P]ATP by scintillation counting method.
Assay [23] deals with Serine/threonine-protein kinase ULK1 (Homo sapiens) (UniProt O75385). As to the kind of experiment: Inhibition of recombinant human ULK1 (1 to 314 residues) at 1 uM using casein as substrate after 40 mins in presence of [gamma-33P]ATP by scintillation counting method.

Sequence of Leukocyte tyrosine kinase receptor (Homo sapiens) (P29376 whole entry, the tested form may be a part): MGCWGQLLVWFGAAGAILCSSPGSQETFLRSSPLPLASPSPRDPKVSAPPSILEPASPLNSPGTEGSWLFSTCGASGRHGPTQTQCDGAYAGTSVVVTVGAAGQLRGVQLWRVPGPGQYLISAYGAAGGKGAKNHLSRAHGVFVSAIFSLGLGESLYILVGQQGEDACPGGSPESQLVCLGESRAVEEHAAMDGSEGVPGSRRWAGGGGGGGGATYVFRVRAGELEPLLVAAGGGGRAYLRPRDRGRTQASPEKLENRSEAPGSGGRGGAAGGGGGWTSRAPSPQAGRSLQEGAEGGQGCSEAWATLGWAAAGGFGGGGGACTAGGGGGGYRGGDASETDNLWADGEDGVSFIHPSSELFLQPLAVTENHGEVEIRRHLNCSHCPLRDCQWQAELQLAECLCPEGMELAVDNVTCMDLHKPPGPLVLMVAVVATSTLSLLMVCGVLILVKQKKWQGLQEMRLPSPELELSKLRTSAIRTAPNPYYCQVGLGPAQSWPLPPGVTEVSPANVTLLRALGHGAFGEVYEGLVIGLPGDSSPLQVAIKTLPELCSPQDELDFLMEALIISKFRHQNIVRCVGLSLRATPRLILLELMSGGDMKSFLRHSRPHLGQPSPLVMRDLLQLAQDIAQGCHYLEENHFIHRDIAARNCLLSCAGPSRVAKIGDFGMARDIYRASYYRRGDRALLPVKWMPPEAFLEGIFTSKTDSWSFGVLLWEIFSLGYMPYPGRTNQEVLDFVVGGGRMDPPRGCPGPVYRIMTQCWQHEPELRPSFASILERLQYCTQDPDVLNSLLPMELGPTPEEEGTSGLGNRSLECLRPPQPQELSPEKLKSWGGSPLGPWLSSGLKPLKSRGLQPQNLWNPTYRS
Sequence of Tyrosine-protein kinase ABL2 (Mus musculus) (Q4JIM5 whole entry): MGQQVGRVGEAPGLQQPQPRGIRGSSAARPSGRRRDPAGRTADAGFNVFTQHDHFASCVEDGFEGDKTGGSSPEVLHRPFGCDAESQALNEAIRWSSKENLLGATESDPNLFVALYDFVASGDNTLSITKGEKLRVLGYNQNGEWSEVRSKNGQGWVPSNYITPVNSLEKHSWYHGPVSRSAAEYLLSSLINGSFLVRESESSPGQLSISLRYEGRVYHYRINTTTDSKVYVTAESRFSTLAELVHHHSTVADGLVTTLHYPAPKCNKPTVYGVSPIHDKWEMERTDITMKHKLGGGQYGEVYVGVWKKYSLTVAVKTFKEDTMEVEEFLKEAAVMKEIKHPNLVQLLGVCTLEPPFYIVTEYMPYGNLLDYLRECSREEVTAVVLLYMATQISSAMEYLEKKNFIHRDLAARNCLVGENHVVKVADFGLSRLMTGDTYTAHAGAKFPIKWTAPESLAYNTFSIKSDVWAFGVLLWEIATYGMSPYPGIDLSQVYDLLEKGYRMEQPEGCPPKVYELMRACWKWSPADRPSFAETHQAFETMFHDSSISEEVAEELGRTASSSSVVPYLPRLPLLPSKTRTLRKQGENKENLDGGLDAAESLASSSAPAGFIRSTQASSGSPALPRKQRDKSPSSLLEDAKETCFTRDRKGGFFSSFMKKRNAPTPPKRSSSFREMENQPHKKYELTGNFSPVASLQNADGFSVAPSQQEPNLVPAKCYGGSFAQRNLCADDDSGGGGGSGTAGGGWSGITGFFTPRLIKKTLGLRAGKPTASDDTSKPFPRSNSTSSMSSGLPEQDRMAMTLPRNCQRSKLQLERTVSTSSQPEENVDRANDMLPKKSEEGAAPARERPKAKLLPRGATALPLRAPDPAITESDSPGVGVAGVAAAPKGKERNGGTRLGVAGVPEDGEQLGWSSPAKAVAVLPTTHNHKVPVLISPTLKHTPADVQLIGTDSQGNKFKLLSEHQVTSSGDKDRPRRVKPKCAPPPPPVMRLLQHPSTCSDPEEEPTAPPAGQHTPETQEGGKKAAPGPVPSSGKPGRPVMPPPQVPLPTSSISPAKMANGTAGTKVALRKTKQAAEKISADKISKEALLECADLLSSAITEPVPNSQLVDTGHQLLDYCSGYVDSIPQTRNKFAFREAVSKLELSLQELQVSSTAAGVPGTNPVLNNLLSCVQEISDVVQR

In general, inhibition refers to the change of the read-out against control, counted positive when it falls. Consider `CS(=O)(=O)c1ccc(-n2nc(-c3cnc4[nH]ccc4c3)c3c(N)ncnc32)cc1`, for which the inhibition in assay [1] was 77%; in assay [2], -6%; in [3], 69%; in [4] it was 28%; in assay [5], -4%; in assay [6], -1%. The inhibition in assay [7] is 13%; in assay [8] it was -1%; in assay [9], 5%; in assay [10], 0%; in [11], 36%; in [12], 22%. In addition, the inhibition in assay [13] was -3%; in [14], 2%; in assay [15] it was -3%; in assay [16] it was 18%; in assay [17] it was 8%; in assay [18], -1%. Also, the inhibition is 18% in [19]; 7% in assay [20]; 76% in [21]; 4% in [22]; -1% in assay [23].

The values above are taken from ChEMBL document CHEMBL4190187, “Discovery of pyrazolopyrimidine derivatives as novel inhibitors of ataxia telangiectasia and rad3 related protein (ATR)” (Bioorg Med Chem Lett, 2017).
